Data as given in publication PMC10573892, “β-Lactam TRPM8 Antagonists Derived from Phe-Phenylalaninol Conjugates: Structure–Activity Relationships and Antiallodynic Activity” (International Journal of Molecular Sciences, 2023).

Columns and labels:
[1] = system: dorsal root ganglia (DRG) sensory neurons; test: Resting membrane potential of DRG sensory neurons (current clamp Patch-Clamp); type: cell-based; conditions: 10 µM
Description: We also investigated the effect of β-lactams derivatives on the resting membrane potential (RMP) of dorsal root ganglia (DRG) sensory neurons.
(A) Representative recordings of resting membrane potential measured under current clamp configuration. The traces show the action potentials (APs) firings from DRG neurons elicited by 100 μM menthol (left trace) or in the presence of vehicle (0.5% DMSO) or the β-lactams derivatives ([…]). (B) Changes in the Vm in the absence and in the presence of 10 μM of the β-lactams derivatives. Data were analyzed by one-way ANOVA followed by Bonferroni post hoc test for multiple comparisons (ns = no significance, **** p < = 0.0001) and given as mean ± SEM; n ≥ 40 cells from 4 cultures.

hCGRPR = hCGRPR (Homo sapiens, UniProt O60894+Q16602); test: Radioligand binding at CGRP receptor; conditions: radioligand [125]hGCRPα
Sequence of hCGRPR (Q16602 23-461): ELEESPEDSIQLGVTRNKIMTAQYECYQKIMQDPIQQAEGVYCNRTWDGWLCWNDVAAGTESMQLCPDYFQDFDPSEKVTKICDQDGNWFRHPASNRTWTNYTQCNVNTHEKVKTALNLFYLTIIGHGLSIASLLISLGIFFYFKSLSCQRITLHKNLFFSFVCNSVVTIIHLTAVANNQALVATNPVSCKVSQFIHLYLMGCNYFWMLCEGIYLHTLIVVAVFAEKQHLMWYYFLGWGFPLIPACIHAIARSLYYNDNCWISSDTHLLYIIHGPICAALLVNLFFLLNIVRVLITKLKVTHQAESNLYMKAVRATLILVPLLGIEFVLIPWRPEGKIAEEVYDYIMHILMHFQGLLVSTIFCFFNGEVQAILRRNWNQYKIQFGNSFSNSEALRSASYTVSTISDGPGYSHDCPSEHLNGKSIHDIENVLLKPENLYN
Sequence of hCGRPR (O60894 27-148): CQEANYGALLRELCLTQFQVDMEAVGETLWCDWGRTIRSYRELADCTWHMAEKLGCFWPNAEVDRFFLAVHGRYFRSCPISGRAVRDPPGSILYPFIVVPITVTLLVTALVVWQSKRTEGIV
Description: (§1) Furthermore, the investigation extended to measuring the binding affinity of compound 34 to calcitonin gene-related peptide hCGRPR, cannabinoid hCB2 and muscarinic hM3 receptors, which are all relevant to different pain conditions.

hM3 = hM3 (Homo sapiens, UniProt P20309); test: Radioligand binding at muscarinic M3 receptor; conditions: radioligand [3H]4-DMAP
Sequence of hM3 (P20309 whole entry): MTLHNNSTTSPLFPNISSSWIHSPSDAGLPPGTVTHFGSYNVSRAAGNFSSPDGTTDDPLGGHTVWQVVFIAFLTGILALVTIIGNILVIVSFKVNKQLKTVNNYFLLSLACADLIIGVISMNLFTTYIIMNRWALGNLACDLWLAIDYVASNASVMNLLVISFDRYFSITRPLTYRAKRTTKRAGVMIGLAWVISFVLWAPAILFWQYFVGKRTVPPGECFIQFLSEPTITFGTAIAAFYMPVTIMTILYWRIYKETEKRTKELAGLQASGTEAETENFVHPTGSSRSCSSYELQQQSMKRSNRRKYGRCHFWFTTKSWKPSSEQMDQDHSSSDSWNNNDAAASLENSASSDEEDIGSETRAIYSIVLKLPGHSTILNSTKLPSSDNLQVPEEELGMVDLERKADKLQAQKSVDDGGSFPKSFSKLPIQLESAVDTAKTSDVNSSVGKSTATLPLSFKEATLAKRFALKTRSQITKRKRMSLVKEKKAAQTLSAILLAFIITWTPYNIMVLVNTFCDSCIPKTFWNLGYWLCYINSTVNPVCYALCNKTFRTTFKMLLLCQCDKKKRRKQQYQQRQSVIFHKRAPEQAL
Description: as §1

hTRPA1 = target: T1, hTRPA1 (Homo sapiens, UniProt O75762); test: TRPA1 channel Ca2+ microfluorimetry (allylisothiocyanate 10 μM); type: cell-based; conditions: agonist allylisothiocyanate 10 μM
T1 construct: Eurofins-CEREP or Eurofins-PANLABS (contract assay)
T1 sequence (O75762 whole entry): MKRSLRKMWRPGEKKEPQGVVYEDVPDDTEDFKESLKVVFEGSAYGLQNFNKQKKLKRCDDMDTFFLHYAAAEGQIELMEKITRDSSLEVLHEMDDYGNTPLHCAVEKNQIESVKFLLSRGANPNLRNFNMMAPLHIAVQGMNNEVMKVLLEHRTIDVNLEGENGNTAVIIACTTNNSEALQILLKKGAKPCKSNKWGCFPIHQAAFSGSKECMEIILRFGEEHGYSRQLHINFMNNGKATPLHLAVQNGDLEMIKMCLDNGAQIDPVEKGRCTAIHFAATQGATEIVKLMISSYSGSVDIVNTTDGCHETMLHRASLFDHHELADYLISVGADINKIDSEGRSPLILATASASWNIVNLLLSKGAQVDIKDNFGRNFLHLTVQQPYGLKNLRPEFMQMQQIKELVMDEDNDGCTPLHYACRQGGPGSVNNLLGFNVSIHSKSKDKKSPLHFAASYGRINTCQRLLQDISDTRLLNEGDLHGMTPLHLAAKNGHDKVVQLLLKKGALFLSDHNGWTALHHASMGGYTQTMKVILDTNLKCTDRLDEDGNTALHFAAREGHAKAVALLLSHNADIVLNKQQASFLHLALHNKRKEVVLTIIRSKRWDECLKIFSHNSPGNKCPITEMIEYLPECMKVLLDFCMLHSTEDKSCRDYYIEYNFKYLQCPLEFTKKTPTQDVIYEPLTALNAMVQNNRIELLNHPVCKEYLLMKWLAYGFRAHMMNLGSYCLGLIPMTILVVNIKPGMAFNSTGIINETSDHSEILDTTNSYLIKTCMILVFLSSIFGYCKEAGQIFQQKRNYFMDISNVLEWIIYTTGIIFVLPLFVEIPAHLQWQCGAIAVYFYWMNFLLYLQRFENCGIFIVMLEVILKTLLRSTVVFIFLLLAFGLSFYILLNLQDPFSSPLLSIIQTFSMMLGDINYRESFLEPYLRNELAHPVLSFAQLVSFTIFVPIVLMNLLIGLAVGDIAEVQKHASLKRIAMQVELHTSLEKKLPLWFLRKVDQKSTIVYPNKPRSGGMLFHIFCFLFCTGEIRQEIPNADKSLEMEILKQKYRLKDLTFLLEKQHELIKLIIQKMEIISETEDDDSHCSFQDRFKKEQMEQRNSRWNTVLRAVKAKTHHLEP
Description: (§2) The effects of compound 34 have been evaluated on different ion channels and receptors implicated in pain-related processes to assess the selectivity for TRPM8 channels. First, some TRP channels that play a role in temperature integration and nociception were selected, including hTRPV1, hTRPV3, hTRPA1 and TRPM3. Additionally, the evaluation encompassed the hASIC3 channel with widespread distribution within the peripheral nervous system and contributions to the excitability of primary sensory neurons. In each instance, the compound was subjected to evaluation at a consistent concentration of 10 µM.
(§3) Calcium fluorometry, Patch-Clamp assays and in vivo experiments were performed using the methodology previously described for TRPM8 [35] or TRPM3 [61]. In the Patch -Clamp experiments, the intracellular pipette solution contained (in mM) 140 KCl, 5 EGTA, and 10 mM HEPES, adjusted to pH 7.2 with KOH, and the extracellular solution contained (in mM) 140 NaCl, 2 CaCl2, 1 MgCl2, 10 D-glucose and 10 HEPES, adjusted to pH 7.4 with NaOH. Selectivity against TRPV1, TRPV3, TRPA1 and ASIC3 was subcontracted to Eurofins-CEREP or Eurofins-PANLABS (see ref. [35] for more details).

hTRPM8 = target: T2, hTRPM8 (Homo sapiens, UniProt Q7Z2W7); test: Ca2+ microfluorimetry in HEK293 cells expressing human TRPM8; type: cell-based; conditions: activation by 100 µM menthol; read-out: Ca^2+ Microfluorimetry Assays hTRPM8 IC50
T2 construct: expressed in transfected cells; host or cells: HEK293
Description: To further characterize this family of compounds, calcium microfluorimetry assays were conducted using the HEK293 cell line, which expresses the human isoform of the TRPM8 channel. Amide derivatives 34 and 35 were selected, and their outcomes were compared with those of the model compound 1 (Table 4). […] This behavior is not particular of these β-lactams, but it is similar to those observed for other TRPM8 antagonists.
as §3

hTRPM3 = hTRPM3 (Homo sapiens, UniProt Q9HCF6); test: TRPM3 channel Ca2+ microfluorimetry (pregnenolone sulfate 50 µM); type: cell-based; conditions: 10 μM; agonist pregnenolone sulfate 50 µM; read-out: % Channel Inhibition at 10 μM hTRPM3
Sequence of hTRPM3 (Q9HCF6 whole entry): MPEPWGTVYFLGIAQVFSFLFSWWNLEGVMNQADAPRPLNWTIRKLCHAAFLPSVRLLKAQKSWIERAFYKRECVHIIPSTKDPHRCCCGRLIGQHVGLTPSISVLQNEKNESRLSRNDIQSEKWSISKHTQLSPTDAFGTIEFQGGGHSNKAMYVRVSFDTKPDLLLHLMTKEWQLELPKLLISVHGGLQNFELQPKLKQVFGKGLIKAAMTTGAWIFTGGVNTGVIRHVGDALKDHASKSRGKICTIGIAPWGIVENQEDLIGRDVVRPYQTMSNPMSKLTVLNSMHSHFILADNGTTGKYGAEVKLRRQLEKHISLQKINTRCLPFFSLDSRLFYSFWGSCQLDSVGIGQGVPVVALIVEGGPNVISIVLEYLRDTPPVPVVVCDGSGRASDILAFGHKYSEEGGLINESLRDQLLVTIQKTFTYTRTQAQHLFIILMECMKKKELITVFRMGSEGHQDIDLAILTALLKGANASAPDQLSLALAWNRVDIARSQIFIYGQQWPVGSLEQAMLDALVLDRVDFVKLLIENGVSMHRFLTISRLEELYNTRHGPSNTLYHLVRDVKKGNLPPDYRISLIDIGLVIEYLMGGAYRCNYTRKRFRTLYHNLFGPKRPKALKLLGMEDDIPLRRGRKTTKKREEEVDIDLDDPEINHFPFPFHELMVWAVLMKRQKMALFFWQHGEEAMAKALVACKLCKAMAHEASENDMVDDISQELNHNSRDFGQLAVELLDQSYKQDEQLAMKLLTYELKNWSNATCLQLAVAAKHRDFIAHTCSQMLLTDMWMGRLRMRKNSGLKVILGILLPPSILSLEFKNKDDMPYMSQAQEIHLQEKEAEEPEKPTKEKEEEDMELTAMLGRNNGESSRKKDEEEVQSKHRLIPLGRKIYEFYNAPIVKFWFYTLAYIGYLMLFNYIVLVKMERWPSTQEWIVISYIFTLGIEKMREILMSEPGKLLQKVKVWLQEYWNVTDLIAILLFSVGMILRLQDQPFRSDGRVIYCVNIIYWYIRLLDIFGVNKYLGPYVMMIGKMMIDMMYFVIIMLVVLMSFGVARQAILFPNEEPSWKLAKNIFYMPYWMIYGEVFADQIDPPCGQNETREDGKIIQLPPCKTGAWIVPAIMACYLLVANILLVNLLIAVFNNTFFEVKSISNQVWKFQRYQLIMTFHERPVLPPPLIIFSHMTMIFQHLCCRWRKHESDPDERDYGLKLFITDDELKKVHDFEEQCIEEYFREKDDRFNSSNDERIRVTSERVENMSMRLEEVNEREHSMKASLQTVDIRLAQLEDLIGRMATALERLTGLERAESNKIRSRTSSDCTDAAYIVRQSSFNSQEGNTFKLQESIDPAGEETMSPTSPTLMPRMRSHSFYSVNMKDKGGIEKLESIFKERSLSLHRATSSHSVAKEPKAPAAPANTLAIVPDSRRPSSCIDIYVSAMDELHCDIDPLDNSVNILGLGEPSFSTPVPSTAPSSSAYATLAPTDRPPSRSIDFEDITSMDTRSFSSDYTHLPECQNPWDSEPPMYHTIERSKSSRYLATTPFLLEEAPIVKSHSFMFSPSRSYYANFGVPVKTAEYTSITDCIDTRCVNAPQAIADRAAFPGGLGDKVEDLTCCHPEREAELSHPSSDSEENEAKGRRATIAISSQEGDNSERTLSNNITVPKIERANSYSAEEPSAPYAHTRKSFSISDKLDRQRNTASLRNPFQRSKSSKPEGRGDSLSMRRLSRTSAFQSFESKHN
Description: as §2, with “First,” for “The effects of compound 34 have been evaluated on different ion channels and receptors implicated in pain-related processes to assess the selectivity for TRPM8 channels. First,”
as §3

hCB2 = hCB2 (Homo sapiens, UniProt P34972); test: Radioligand binding at cannabinoid CB2 receptor; conditions: radioligand [3H]WIN 55212-2
Sequence of hCB2 (P34972 whole entry): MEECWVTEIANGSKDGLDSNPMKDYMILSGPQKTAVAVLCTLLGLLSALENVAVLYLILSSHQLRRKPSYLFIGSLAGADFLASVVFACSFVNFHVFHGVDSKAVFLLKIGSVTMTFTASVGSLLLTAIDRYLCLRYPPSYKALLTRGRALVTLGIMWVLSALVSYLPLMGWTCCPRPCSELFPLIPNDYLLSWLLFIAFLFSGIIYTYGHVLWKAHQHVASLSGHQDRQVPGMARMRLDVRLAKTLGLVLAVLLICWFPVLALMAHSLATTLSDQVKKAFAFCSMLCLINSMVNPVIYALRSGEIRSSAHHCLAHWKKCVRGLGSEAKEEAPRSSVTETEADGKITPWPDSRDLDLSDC
Description: as §1

[2] = system: oxaliplatin-induced cold hypersensitivity; test: Oxaliplatin-induced cold allodynia in mice (acetone drop test); type: in vivo
Description: It is established that treatments with the chemotherapeutic drug oxaliplatin (OXA) induce painful peripheral neuropathy, known as CIPN, which becomes more pronounced in cold conditions. The TRPM8 channel has been implicated in mouse models of CIPN pain induced by OXA [19, 51]. In fact, the OXA-induced peripheral neuropathy mouse model is being used for the pharmacological characterization of TRPM8 antagonists. For this peripheral neuropathy assay, mice were subcutaneously (s.c.) injected with OXA at a dose of 6 mg/kg dose on days 1, 3 and 5 to male mice to induce increased sensitivity to cold, which can be monitored through the acetone drop test.
Consequently, compounds 34 and 35 have been tested for their ability to alleviate OXA-induced cold hypersensitivity after intraplantar administration (i.pl., 3, 1 and 0.1 μg). […] This effect was observed 15 min post-administration and sustained up to 60 min.
as §3
Figure 4 Effects of compounds 34 (A) and 35 (B) on the oxaliplatin (OXP)-induced cold hypersensitivity (drop acetone test). Peripheral neuropathy was induced in male mice by injecting OXA (6 mg/kg, s.c.) on days 1, 3 and 5. Control animals were treated with vehicle. Compounds 34 (A) and 35 (B) (3 µg/i.pl., 1 µg/i.pl. and 0.1 µg/i.pl.) were administered to the OXP-treated animals, and the time-course of cold hypersensitivity was measured. Data are given ± SEM (n = 5). Statistical analysis, comparing with oxaliplatin-treated mice, was performed by two-way ANOVA followed by post hoc Bonferroni test by multiple comparisons: * […], ** p < 0.01, **** p < 0.0001.

inhibition at 10 µM (hCGRPR): -11.9 ± 5.2%
inhibition at 10 µM (hM3): 5.2 ± 3.2%
inhibition at 10 µM (hTRPA1): 2 ± 3.4%
IC50 (hTRPM8): 2580 ± 1240 nM
inhibition at 10 µM (hTRPM3): 6.9 ± 10.7%
inhibition at 10 µM (hCB2): 7 ± 2.1%
Compound: CC(C)CNC(=O)[C@]1(Cc2ccccc2)[C@H](C)C(=O)N1C[C@H](Cc1ccccc1)N(Cc1ccccc1)Cc1ccccc1 [Compound 34, 4S-Benzyl-4-[N-(iso-butyl)-carbamoyl]-3S-methyl-1-[(2′S-dibenzylamino-3′-phenyl)prop-1′-yl]-2-oxoazetidine]
effect on resting membrane potential (RMP) [1]: did not alter the RMP
time the antiallodynic effect is sustained ([2]; i.pl., observed from 15 min post-administration): up to 60 min
effect on cold-induced paw licking ([2]; male mice, OXA 6 mg/kg s.c. days 1, 3, 5, i.pl. 3, 1 and 0.1 μg): dose-dependent and significant reduction
